One may read the IC50 as the concentration that gives 50% inhibition. The EC50 is the concentration at which the effect is half-maximal.

In experiment [1] the target is SA AgrC-III (Staphylococcus aureus, UniProt O33590). The settings on record: 100 nM cognate AIP, ± SEM, determined previously, ref (1), cited from earlier work.
In experiment [2] the target is SA AgrC-I (Staphylococcus aureus, UniProt O07911).
The subject of experiment [3] is S. aureus (SA) agr-II. The settings on record: fluorescence, cited from earlier work.
Experiment [4] addresses SA AgrC-II (Staphylococcus aureus, UniProt O33587).
The target of experiment [5] is SA AgrC-IV (Staphylococcus aureus, UniProt Q309Z2).
Sequence of SA AgrC-IV (Q309Z2 entry or part of it): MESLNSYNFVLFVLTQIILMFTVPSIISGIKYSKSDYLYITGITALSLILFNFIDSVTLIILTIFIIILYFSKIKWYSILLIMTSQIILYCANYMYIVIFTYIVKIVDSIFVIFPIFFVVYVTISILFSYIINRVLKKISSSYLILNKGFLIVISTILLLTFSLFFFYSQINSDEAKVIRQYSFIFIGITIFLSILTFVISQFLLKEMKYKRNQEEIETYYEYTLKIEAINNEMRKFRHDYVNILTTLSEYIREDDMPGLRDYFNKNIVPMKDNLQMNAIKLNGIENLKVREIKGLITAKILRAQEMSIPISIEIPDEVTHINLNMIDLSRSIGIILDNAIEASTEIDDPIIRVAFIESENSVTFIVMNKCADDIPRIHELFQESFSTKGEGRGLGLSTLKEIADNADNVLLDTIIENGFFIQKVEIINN
The target of experiment [6] is S. aureus agr-II (Staphylococcus aureus, UniProt O33587). Briefly: cell-based. A digest of the protocol: (§1)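 Fluorescence of the agr-driven P3 reporter, read after 22–24 h of growth with peptide at 37°C, was corrected for medium background and divided by OD600. Activity is given relative to wells without peptide, and IC50 values were fitted by non-linear regression with variable slope.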
Sequence of S. aureus agr-II (O33587 entry or part of it): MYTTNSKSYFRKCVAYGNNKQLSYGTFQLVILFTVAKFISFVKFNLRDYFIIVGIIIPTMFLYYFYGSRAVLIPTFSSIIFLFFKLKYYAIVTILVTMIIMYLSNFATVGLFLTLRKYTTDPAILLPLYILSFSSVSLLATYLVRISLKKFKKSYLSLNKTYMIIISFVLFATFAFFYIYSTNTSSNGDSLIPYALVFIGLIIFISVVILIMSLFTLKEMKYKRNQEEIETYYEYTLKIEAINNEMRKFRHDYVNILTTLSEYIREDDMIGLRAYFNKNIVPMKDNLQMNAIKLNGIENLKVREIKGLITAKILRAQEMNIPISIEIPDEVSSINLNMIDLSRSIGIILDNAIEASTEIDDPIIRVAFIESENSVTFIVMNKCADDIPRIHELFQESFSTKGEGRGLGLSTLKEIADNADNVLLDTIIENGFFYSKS

In experiment [7] the target is S. aureus agr-III (Staphylococcus aureus, UniProt O33590). Briefly: cell-based. A digest of the protocol: as §1
Sequence of S. aureus agr-III (O33590 entry or part of it): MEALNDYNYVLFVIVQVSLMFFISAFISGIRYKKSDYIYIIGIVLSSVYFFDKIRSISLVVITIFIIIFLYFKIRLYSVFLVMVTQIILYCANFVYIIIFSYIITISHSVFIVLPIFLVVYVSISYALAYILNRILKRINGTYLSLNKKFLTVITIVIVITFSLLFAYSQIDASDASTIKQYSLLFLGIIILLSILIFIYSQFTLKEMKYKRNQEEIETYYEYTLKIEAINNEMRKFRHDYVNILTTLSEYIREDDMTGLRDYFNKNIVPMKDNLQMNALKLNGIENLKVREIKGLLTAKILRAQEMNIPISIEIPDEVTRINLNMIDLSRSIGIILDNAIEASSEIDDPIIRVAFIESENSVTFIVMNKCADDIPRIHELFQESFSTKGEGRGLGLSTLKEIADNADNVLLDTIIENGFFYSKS
The target in experiment [8] is S. lugdunensis agr-I (Staphylococcus lugdunensis, UniProt Q8VSW5). Description: cell-based. The settings on record: for QS interaction in words (inhibition / activation), S. lugdunensis agr-I: fluorescent reporter strain, peptides tested at 1000, 50, 2.5, 0.125 nM or in dose-response. A digest of the protocol: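 Staphylococcal agr reporters were grown with peptide for 22–24 h at 37°C. Background-corrected fluorescence per OD600 was expressed as a percentage of untreated control, and IC50 was obtained by variable-slope regression.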
Sequence of S. lugdunensis agr-I (Q8VSW5 entry or part of it): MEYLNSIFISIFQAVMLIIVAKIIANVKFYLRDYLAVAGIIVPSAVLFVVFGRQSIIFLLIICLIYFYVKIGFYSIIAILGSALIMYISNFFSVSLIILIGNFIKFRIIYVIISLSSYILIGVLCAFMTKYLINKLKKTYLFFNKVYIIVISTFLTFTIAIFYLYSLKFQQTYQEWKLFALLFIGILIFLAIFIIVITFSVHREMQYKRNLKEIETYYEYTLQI

In experiment [9] the test system is S. aureus (SA) agr-I. The settings on record: fluorescence, cited from earlier work.
For experiment [10], the system named is S. aureus (SA) agr-IV. To be noted: fluorescence, cited from earlier work.
Setting [11] is: 100 nM cognate AIP; ± SEM; -b = no inhibition recorded at the highest AIP concentration tested; determined previously; ref (1); read-out: IC50, SA AgrC-II, b-lactamase assay; cited from earlier work.
The mark [12] stands for this setting: fluorescent reporter strain, peptides tested at 1000, 50, 2.5, 0.125 nM or in dose-response.

Entries after “also recorded” stand apart in the source; their conditions may differ. Like-named read-outs stand apart in the source and are kept apart here. Positions of bridges follow the written chain, without caps; N, C: chain ends. Residues, ends and D or L forms follow the SMILES beside them.

Sequence of SA AgrC-I (O07911 entry or part of it): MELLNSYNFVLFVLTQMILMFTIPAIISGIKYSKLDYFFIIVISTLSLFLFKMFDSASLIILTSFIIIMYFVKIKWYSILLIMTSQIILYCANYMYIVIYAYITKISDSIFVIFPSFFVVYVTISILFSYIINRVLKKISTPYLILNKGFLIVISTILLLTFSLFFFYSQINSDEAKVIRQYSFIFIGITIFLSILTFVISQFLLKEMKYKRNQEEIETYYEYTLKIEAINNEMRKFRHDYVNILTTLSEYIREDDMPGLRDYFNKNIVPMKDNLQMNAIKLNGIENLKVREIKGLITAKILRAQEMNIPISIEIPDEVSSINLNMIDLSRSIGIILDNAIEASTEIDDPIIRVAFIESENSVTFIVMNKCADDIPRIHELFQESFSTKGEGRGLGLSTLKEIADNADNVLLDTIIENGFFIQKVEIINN
Sequence of SA AgrC-III (O33590 entry or part of it): as the sequence (O33590 entry or part of it) above
Sequence of SA AgrC-II (O33587 entry or part of it): as the sequence (O33587 entry or part of it) above

For `CC[C@H](C)[C@@H]1NC(=O)[C@H](Cc2ccccc2)NC(=O)[C@H](CC(=O)O)NC(=O)[C@@H](NC(=O)[C@@H](NC(=O)[C@H](CO)NC(=O)[C@@H](N)Cc2ccc(O)cc2)[C@@H](C)O)CSC(=O)[C@H](CCSC)NC1=O` [compound 1, S. aureus AIP-I] (H-YSTCDFIM; thioester 4-C), the IC50 in experiment [1] (-b = no inhibition recorded at the highest AIP concentration tested, read-out: IC50, SA AgrC-III, b-lactamase assay) is 80 ± 11 nM; in [3] (ref (5)), 8 nM; in experiment [4] (setting [11]), 700 ± 165 nM; in experiment [6] it was 5.8 ± 0.7 nM; in experiment [7], 0.91 nM; in [8], > 1000 nM. The EC50 in [2] (± SEM; determined previously; ref (1); read-out: EC50, SA AgrC-I, b-lactamase assay; cited from earlier work) was 5.4 ± 0.5 nM; in experiment [5] (± SEM; determined previously; ref (1); read-out: EC50, SA AgrC-IV, b-lactamase assay; cited from earlier work), 790 ± 66 nM.

In the case of `CC(C)C[C@@H]1NC(=O)[C@@H](NC(=O)[C@@H]2CCCN2C(=O)[C@H](CC(N)=O)NC(=O)[C@H](Cc2ccc(O)cc2)NC(=O)[C@@H](N)CCCCN)CSC(=O)[C@H](CC(C)C)NC(=O)[C@H](Cc2ccccc2)NC(=O)CNC1=O` [compound 32, S. simulans AIP-I] (H-KYNPCLGFL; thioester 5-C; N-terminus assumed), the IC50 was 50 ± 11 nM in experiment [1] (read-out: IC50, SA AgrC-III, b-lactamase assay, -b = no inhibition recorded at the highest AIP concentration tested); 8.6 ± 0.5 nM in experiment [2] (read-out: IC50, SA AgrC-I, b-lactamase assay; 100 nM cognate AIP; ± SEM; -b = no inhibition recorded at the highest AIP concentration tested; determined previously; ref (1); cited from earlier work); 1.1 nM in experiment [3] (ref (17)); 2.2 nM in [9] (ref (17)); 23 ± 2 nM in experiment [4] (read-out: IC50, SA AgrC-II, b-lactamase assay; 100 nM cognate AIP; ± SEM; -b = no inhibition recorded at the highest AIP concentration tested; determined previously; ref (1); cited from earlier work); 280 ± 66 nM in [5] (read-out: IC50, SA AgrC-IV, b-lactamase assay; 100 nM cognate AIP; ± SEM; -b = no inhibition recorded at the highest AIP concentration tested; determined previously; ref (1); cited from earlier work). Also, the IC50 was 0.31 ± 0.01 nM in experiment [6], 0.53 ± 0.02 nM in [7], 113 ± 11 nM in experiment [8] and 23 nM in experiment [10] (ref (17)).

`NCCCC[C@H](N)C(=O)N[C@@H](Cc1ccc(O)cc1)C(=O)N[C@@H](Cc1ccc(O)cc1)C(=O)N1CCC[C@H]1C(=O)N[C@H]1CSC(=O)[C@H](Cc2ccccc2)NC(=O)[C@H](Cc2ccc(O)cc2)NC(=O)CNC(=O)[C@H](Cc2c[nH]c3ccccc23)NC1=O` [compound 33, S. simulans AIP-II] (H-KYYPCWGYF; thioester 5-C): the IC50 in experiment [9] (ref (17)) is 1.6 nM; in [6], 0.8 ± 0.2 nM; in experiment [7], 2.8 ± 0.3 nM; in experiment [8], 1.2 ± 0.2 nM; in experiment [10] (ref (17)), 40 nM. Further, the “QS interaction in words (inhibition / activation), S. aureus agr-II” value in experiment [6] (setting [12]) is “inhibited”. For the same molecule, the “QS interaction in words (inhibition / activation), S. aureus agr-III” value in experiment [7] (setting [12]) was “inhibited”. Moreover, the “QS interaction in words (inhibition / activation), S. lugdunensis agr-I” value in experiment [8] is recorded as “inhibited; also recorded: sub- or low-nanomolar potencies”.

For `NCCCC[C@H](N)C(=O)N[C@@H](Cc1ccc(O)cc1)C(=O)N[C@@H](CC(N)=O)C(=O)N1CCC[C@H]1C(=O)N[C@H]1CSC(=O)[C@H](Cc2ccccc2)NC(=O)[C@H](Cc2ccc(O)cc2)NC(=O)CNC(=O)[C@H](Cc2c[nH]c3ccccc23)NC1=O` [compound 34, S. simulans AIP-III] (H-KYNPCWGYF; thioester 5-C), the IC50 was 6 nM in [3] (ref (17)); 1.7 nM in experiment [9] (ref (17)); 0.22 ± 0.06 nM in [6]; 0.59 ± 0.04 nM in [7]; 0.48 nM in experiment [8]; 48 nM in [10] (ref (17)). Moreover, the “IC50 fold lower compared with the most potent, previously reported inhibitors of S. lugdunensis” value in experiment [8] (S. lugdunensis agr-I, comparison with [37]) was determined as 400 fold. Moreover, the “QS interaction in words (inhibition / activation), S. lugdunensis agr-I” value in experiment [8] is given as “sub- or low-nanomolar potencies”.

“S. aureus AIP-III D4A [compound 57, reference compound]”: the IC50 in experiment [1] (only partial inhibition observed, read-out: IC50, SA AgrC-III, b-lactamase assay, only partial inhibition observed (footnote a)) is 1.6 ± 0.2 nM; in experiment [2] (100 nM cognate AIP; ± SEM; -b = no inhibition recorded at the highest AIP concentration tested; determined previously; ref (1); read-out: IC50, SA AgrC-I, b-lactamase assay; cited from earlier work), 3.3 ± 0.7 nM; in experiment [3] (ref (5)) it was 0.43 nM; in [9] (ref (5)), 0.49 nM; in experiment [4] (setting [11]), 34 ± 1 nM; in [5] (100 nM cognate AIP; ± SEM; -b = no inhibition recorded at the highest AIP concentration tested; determined previously; ref (1); read-out: IC50, SA AgrC-IV, b-lactamase assay; cited from earlier work) it was 10 ± 0.2 nM. Further, the IC50 in experiment [10] (ref (5)) is 0.035 nM. Besides, the “QS interaction in words (inhibition / activation), S. lugdunensis agr-I” value in experiment [8] is on record as “weak interference”.

Values taken from article PMC12345137 (mBio, 2025).
